Reference: US6037333A, “Microbe-inhibiting compositions” (Trustees of Tufts College, priority 1998, dated 2000)

Tests used:
[1] = test system: Acanthamoeba; assay: Acanthamoeba-induced CPE assay, primary cultures of corneal epithelium; type: cell-based; conditions: primary cultures as target cells
Procedure: In vitro cytopathic assays were performed using cell cultures of corneal epithelium as target cells. Primary cell cultures of rabbit corneal epithelium were prepared according to published protocols (M. M. Jumblatt, Invest. Opthalmol. Visual Sci. 24:1139-43, 1983) using rabbit eyes from Pel-Freez Biologicals (N. Panjwani et al., Invest. Opthalmol. Visual Sci. 31:689-695, 1990) (Rogers, AK). Generally, seventy-five eyes were processed at a time. Primary cultures have limited life span and can only be passaged 2 to 3 times without significant alteration in cell morphology.
(§1) To characterize the role of carbohydrate-mediated host-parasite interactions in the Acanthamoeba-induced cytotoxicity of host cells, in vitro cytopathic assays were performed using both primary and immortalized cultures of corneal epithelium as host cells. Immortalized cells were assayed as confluent cultures in 24-well plates, and primary cells were assayed as confluent cells in 35-mm dishes or 6-well plates.
The parasites (>95% trophozoites) were rinsed three times in a serum-free Eagle's minimum essential medium supplemented with 0.4% bovine serum albumin (SFB) and aliquots of the parasite suspension (0.2×10^5 to 1×10^6 parasites/ml SFB medium, 300 μl/well for 24-well plates and 500 μl/well for 6-well plates or 35-mm dishes) were added to wells of confluent epithelial cultures which had been rinsed and preincubated in SFB medium for 2 hours. The plates were incubated at 37° C. in a CO2 incubator and periodically examined under a phase-contrast microscope for the presence of cell-free plaques in the monolayer for up to 28-30 hours. Control wells contained host cells without the parasites. At the end of the incubation period, the cultures were stained with Giemsa (Diff-Quik, Dade Diagnostic Inc., Aguada, PR). Approximate cell density in each well was estimated by scanning the stained plates in a calibrated, computer-assisted Bio-Image Scanner (Millipore, Ann Arbor, Mich.). Cytopathic effect (CPE) was expressed as percentage of the optical density by the following formula: [formula]
Primary cultures were less susceptible to amoeba-induced CPE, requiring 1×10^6 parasites/ml to completely destroy the monolayer within 24 hours. This parasite concentration was five times higher than that required to produce the same effect when immortalized cultures were used as target host cells.

[2] = test system: Acanthamoeba; assay: Acanthamoeba-induced cytopathic effect (CPE) assay, immortalized corneal epithelial cultures; type: cell-based; conditions: for Inhibition of amoeba-induced CPE: no concentration stated
Procedure: Corneal epithelial cells with extended life span were also produced.
as §1
The plates were incubated at 37° C. in a CO2 incubator and periodically examined under a phase-contrast microscope for the presence of cell-free plaques in the monolayer for up to 28-30 hours. Control wells contained host cells without the parasites. At the end of the incubation period, the cultures were stained with Giemsa (Diff-Quik, Dade Diagnostic Inc., Aguada, PR). Approximate cell density in each well was estimated by scanning the stained plates in a calibrated, computer-assisted Bio-Image Scanner (Millipore, Ann Arbor, Mich.). Cytopathic effect (CPE) was expressed as percentage of the optical density by the following formula: [formula]
The CPE assays were performed in the SFB media containing one or more saccharides to be tested.
After staining with Giemsa, percent cell loss in each well was calculated based on the optical density in each well.

CO[C@H]1O[C@H](CO)[C@@H](O)[C@H](O)[C@@H]1O [Methyl-α-D-mannopyranoside]
Inhibition of amoeba-induced CPE [1]: inhibited CPE
inhibition at 310 µM ([2]; Acanthamoeba, in Oryctolagus cuniculus, at 0.31 mM, read-out: Inhibition of cytopathic effect (% inhib. at indicated conc.)): 61%
Time at which cell layer began to lift from the periphery ([2]; incubation with amoebae in presence of saccharide, without it nearly complete loss after about 20 hours): 20 to 28 h
Inhibition of amoeba-induced CPE ([2]; listed as Methyl-α-mannopyranoside): potent inhibitors
Inhibition of amoeba-induced CPE ([2]; listed as α-Man): nearly identical
Amoeba-induced cytolysis of corneal epithelial cells (microscopy, words) ([2]; saccharide present in media): substantially inhibited
Cell-free plaques in monolayer ([2]; saccharide present in media): not detected
